Test results published in PMC4920590, “GPR142 Controls Tryptophan-Induced Insulin and Incretin Hormone Secretion to Improve Glucose Metabolism” (PLoS ONE, 2016).

Experiments:
[1] = design: method as in PMID 25787200; conditions: humans, phase III study; cited from earlier work
[2] = system: Free Fatty Acid Receptor 1 (FFAR1, GPR40); design: method as in PMID 21752941; conditions: preclinical models; cited from earlier work
[3] = system: Calcium-sensing receptor (CaSR); design: method as in PMID 24812056; conditions: rats; cited from earlier work
[4] = biological target: T1, human GPR142 (Homo sapiens, UniProt Q7Z601); assay: IP-1 accumulation assay in HEK293 cells stably expressing human GPR142; format: cell-based
T1 construct: expressed in transfected cells
T1 sequence (Q7Z601 1-374 isoform Q7Z601-2): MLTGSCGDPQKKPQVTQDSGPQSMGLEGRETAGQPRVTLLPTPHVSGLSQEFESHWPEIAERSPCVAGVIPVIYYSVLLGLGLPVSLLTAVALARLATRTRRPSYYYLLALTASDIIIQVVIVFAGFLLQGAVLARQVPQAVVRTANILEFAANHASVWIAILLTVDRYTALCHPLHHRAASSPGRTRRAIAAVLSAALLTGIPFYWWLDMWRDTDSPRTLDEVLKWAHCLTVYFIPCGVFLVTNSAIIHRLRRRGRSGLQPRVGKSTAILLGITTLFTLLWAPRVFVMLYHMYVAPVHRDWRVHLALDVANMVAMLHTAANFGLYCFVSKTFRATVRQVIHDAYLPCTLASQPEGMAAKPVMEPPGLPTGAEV
Procedure: (§1) HEK293 cells obtained from ATCC were used to generate cell lines stably expressing human GPR142 or mouse Gpr142 by transfecting cells with pcDNA3.1 expression vectors containing each cDNA. Cells expanded from single clones were maintained in DMEM containing 10% fetal bovine serum (FBS) and 800 μg/ml G418. Untransfected control HEK293 cells were maintained in DMEM containing 10% FBS. Cells were plated in 384 well plates at 5000 cells per well and allowed 18 hours for attachment. After addition of compounds, cells were incubated for 1 hour. IP-1 measurements were performed using an HTRF assay kit (Cisbio) according to manufacturer’s protocol using assay buffer containing 1 × HBSS (Hank’s Balanced Salt Solution, +Ca, +Mg), 0.1% bovine serum albumin (BSA), 50 mM LiCl and 20 mM HEPES (4-(2-hydroxyethyl)-1-piperazineethanesulfonic acid), pH 7.2. The reaction was stopped by addition of IP1-d2 followed by cryptate solution and the plates were incubated at 25°C for 1 hour. Fluorescence was read in an Envision instrument at 665 nm and 620 nm. The ratio of 665 nm/620 nm was calculated and converted to IP-1 levels using a standard curve method. The data was fit to 4-parameter fit logistics to determine EC50 values.

[5] = system: human pancreatic islets; assay: Insulin secretion in isolated human pancreatic islets; format: cell-based; conditions: 11 mM glucose, 1 hour, non-diabetic donor
Text: Human pancreatic islets were purchased from Prodo Labs at the Scharp-Lacy Research Institute (Irvine, CA, www.prodolabs.com) through the Integrated Islet Distribution Program in accordance with internal review board (IRB) ethical guidelines for use of human tissue. Islets were isolated at Prodo Labs from human pancreata from listed cadaver organ donors that were refused for primary human pancreas transplantation or isolated islets transplantion into listed diabetic recipients. […] The next day day islets were incubated for 30 min in EBSS buffer containing 0.1% BSA and 3 mM glucose. […] Islets were cultured for 60 min at 37°C. The incubation was stopped by chilling the samples on ice. The culture media was removed and stored at -20°C until its insulin concentration was measured. Insulin was measured using a custom built immunoassay (Meso Scale Discovery).

[6] = system: murine pancreatic islets; assay: Insulin secretion in isolated murine pancreatic islets (WT and Gpr142 KO); format: cell-based, mouse; conditions: 11.1 mM glucose, 1 hour
Procedure: Secretion was stopped by refrigerating the plates at 4°C for 3 minutes. Supernatant was removed from the wells and assayed for insulin levels using the MA6000 Mouse/Rat Insulin Kit (Meso Scale Discovery).

[7] = Plasma insulin and incretin hormone levels after oral dosing in mice; format: in vivo, mouse
Procedure: (§2) Mice were fasted overnight and allowed free access to water. […] Tail blood glucose levels were measured at indicated time points using handheld glucometers. For incretin hormone measurements, blood was collected via cardiac bleeds into EDTA-tubes containing DPP-4 inhibitor (Millipore) and protease inhibitor cocktail (Thermo Fisher). For insulin measurements during GTT, blood was collected from the tail.
Immunoassays were used to measure total GIP (Millipore, ELISA), total GLP-1, and insulin (Meso Scale Discovery). Enzymatic assays were used to measure TG, beta-hydroxybutarate (Sigma-Aldrich), and total cholesterol (Thermo Fisher). HDL-cholesterol was determined in the supernatant after removal of LDL/vLDL-cholesterol by a precipitation reagent (Sigma-Aldrich); non-HDL-cholesterol was determined by subtracting HDL from total cholesterol. Free fatty acids were measured by GC-MS.

[8] = Glucose tolerance test (IPGTT/OGTT) after oral dosing in mice; format: in vivo, mouse
Procedure: as §2

[9] = system: untransfected control HEK293 cells; assay: IP-1 accumulation in untransfected control HEK293 cells; format: cell-based; conditions: Fig 1B
Procedure: as §1

[10] = biological target: T2, mouse GPR142 (Mus musculus, UniProt Q7TQN9); assay: IP-1 accumulation assay in HEK293 cells stably expressing mouse Gpr142; format: cell-based
T2 sequence (Q7TQN9 67-365 limits assumed): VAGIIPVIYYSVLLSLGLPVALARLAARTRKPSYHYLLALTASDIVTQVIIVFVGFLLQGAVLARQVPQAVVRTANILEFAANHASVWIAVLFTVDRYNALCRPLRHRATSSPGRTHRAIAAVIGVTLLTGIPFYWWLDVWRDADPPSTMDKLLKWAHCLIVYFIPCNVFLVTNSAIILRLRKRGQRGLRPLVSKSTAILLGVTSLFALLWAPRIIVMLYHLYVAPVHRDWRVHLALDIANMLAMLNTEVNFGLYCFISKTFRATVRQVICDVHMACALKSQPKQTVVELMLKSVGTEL
Procedure: as §1

[11] = 500 mg/kg p.o., 10 minutes after dosing, vs WT
[12] = 150 or 500 mg/kg p.o., overnight fasted normal C57 male mice
[13] = 500 mg/kg p.o. 15 minutes prior to glucose 2 g/kg i.p.
[14] = 500 mg/kg p.o. 15 minutes prior to glucose 2 g/kg p.o.

Structure (SMILES): Cc1cc(OCCCS(C)(=O)=O)cc(C)c1-c1cccc(COc2ccc3c(c2)OC[C@H]3CC(=O)O)c1 [TAK-875]
- glycemic control [1]: improve glycemic control
- glucose-dependent insulin secretion [2]: stimulate glucose-dependent insulin secretion

Structure (SMILES): C[C@@H](NCCCc1cccc(C(F)(F)F)c1)c1cccc2ccccc12 [Cinacalcet]
- glucose [3]: lower glucose

Structure (SMILES): N[C@@H](Cc1c[nH]c2ccccc12)C(=O)O [L-Tryptophan]
- IP-1 accumulation in HEK-hGPR142 cells ([4]; Fig 1A, 1B): stimulated IP-1 accumulation
- Emax ([4]; HEK293, relative efficacy normalized to maximal response of L-Tryptophan (100%), read-out: HEK293-hGPR142 Emax): 100%
- EC50 ([4]; IP-1 accumulation, 1 hour, 170 nM to 30 mM, read-out: HEK293-hGPR142 EC50): 2100 µM
- insulin secretion in human primary islets [5]: robustly stimulated insulin secretion
- insulin secretion in Gpr142 KO islets compared with WT islets [6]: significantly blunted
- insulin secretion in WT murine islets [6]: dose-dependently stimulated the release of insulin
- GIP release in Gpr142 KO mice [7, 11]: no L-Trp-dependent release
- insulin release in Gpr142 KO mice [7, 11]: no L-Trp-dependent release
- plasma GLP-1 in Gpr142 KO mice [7, 11]: increased GLP-1 in KO mice to a similar extent as in WT
- time of peak plasma insulin, GIP and GLP-1 concentrations after dosing ([7]; 150 or 500 mg/kg p.o., normal C57 male mice): 5 to 10 min
- plasma GIP level [7, 12]: rapidly and dose-dependently increased
- plasma GLP-1 level [7, 12]: rapidly and dose-dependently increased
- plasma insulin level [7, 12]: rapidly and dose-dependently increased
- glucose excursion during IPGTT in Gpr142 KO mice [8, 13]: no significant effect
- glucose excursion during IPGTT in WT mice [8, 13]: suppressed glucose excursion
- glucose excursion during OGTT in Gpr142 KO mice [8, 14]: no significant effect
- glucose excursion during OGTT in WT mice [8, 14]: suppressed glucose excursion
- IP-1 accumulation in untransfected control HEK293 cells [9]: had no effect
- IP-1 accumulation in HEK-mGPR142 cells [10]: stimulated IP-1 accumulation
- Emax ([10]; HEK293, relative efficacy normalized to maximal response of L-Tryptophan (100%), read-out: HEK293-mGPR142 Emax): 100%
- EC50 ([10]; IP-1 accumulation, 1 hour, 170 nM to 30 mM, read-out: HEK293-mGPR142 EC50): 620 µM
